The source of these data is EP0680950B1, “PROPENONE DERIVATIVES” (KYOWA HAKKO KOGYO CO., LTD., priority 1993, dated 1995).

For the assay, the system named is HeLa S3 cells. Kind of assay: HeLa S3 Cell Growth Inhibition Test. In kind it is cell-based. The following applies: Homo sapiens, 72 hours culture with compound, neutral red staining. Here is the method: Each 0.1 ml of HeLa S3 cells which had been prepared to 3 x 10^4 cells/ml using a medium consisted of MEM medium, 10 % fetal bovine serum and 2 mM glutamine was distributed in each well of 96 well-microtiter plate. HeLa S3 was cultured at 37°C in a CO2 incubator for one night, each 0.05 ml of test compounds which had been appropriately diluted with the culture solution was added thereto and the mixture was cultured at 37°C for 72 hours in a CO2 incubator. Supernatant was removed, each 0.1 ml of the culture solution containing 0.02 % neutral red was added to the residue, the mixture was incubated at 37°C for one hour in a CO2 incubator and the cells were stained. Supernatant was removed and the residue was washed once with physiological saline. Then, the pigment was extracted with 0.001 N hydrochloric acid/30 % ethanol and the absorbance at 550 nm was measured by a microplatereader. A concentration of the test compound (IC50) at which the growth of cell is inhibited by 50 % was calculated by comparing the absorbance of non-treated cells and that of cells treated with a predetermined concentration of the test compound.

A word on the IC50: it is the concentration that gives 50% inhibition. In the case of `COc1cc(C(=O)/C=C/c2c[nH]c3ccccc23)cc(OC)c1OC` [Compound 1, (E)-3-(Indol-3-yl)-1-(3,4,5-trimethoxyphenyl)-2-propen-1-one], the half-inhibitory concentration (IC50) was found to be 10 nM.
Take `COc1cc(C(=O)/C=C/c2cn(C)c3ccccc23)cc(OC)c1OC` [Compound 2, (E)-3-(1-Methylindol-3-yl)-1-(3,4,5-trimethoxyphenyl)-2-propen-1-one]: the IC50 was 20 nM.
As for `CCn1cc(/C=C/C(=O)c2cc(OC)c(OC)c(OC)c2)c2ccccc21` [Compound 3, (E)-3-(1-Ethylindol-3-yl)-1-(3,4,5-trimethoxyphenyl)-2-propen-1-one], the IC50 is 58 nM.
For the molecule `COc1cc(C(=O)/C=C/c2cn(C(C)=O)c3ccccc23)cc(OC)c1OC` [Compound 6, (E)-3-(1-Acetylindol-3-yl)-1-(3,4,5-trimethoxyphenyl)-2-propen-1-one], the IC50 turned out to be 17 nM.
Next, `COc1cc(C(=O)/C=C/c2cn(C(=O)c3ccccc3)c3ccccc23)cc(OC)c1OC` [Compound 8, (E)-3-(1-Benzoylindol-3-yl)-1-(3,4,5-trimethoxyphenyl)-2-propen-1-one]: 26 nM; `COc1cc(C(=O)/C=C/c2c(C)[nH]c3ccccc23)cc(OC)c1OC` [Compound 12, (E)-3-(2-Methylindol-3-yl)-1-(3,4,5-trimethoxyphenyl)-2-propen-1-one]: 260 nM.
Turning to `COc1cc(C(=O)/C=C/c2c(Cl)n(C)c3ccccc23)cc(OC)c1OC` [Compound 13, (E)-3-(2-Chloro-1-methylindol-3-yl)-1-(3,4,5-trimethoxyphenyl)-2-propen-1-one], the IC50 is 78 nM.
With `COc1cc(C(=O)/C=C/c2c[nH]c3cccc(C)c23)cc(OC)c1OC` [Compound 15, (E)-3-(4-Methylindol-3-yl)-1-(3,4,5-trimethoxyphenyl)-2-propen-1-one] the figure was 86 nM; with `COc1cc(C(=O)/C=C/c2c[nH]c3ccc(C)cc23)cc(OC)c1OC` [Compound 20, (E)-3-(5-Methylindol-3-yl)-1-(3,4,5-trimethoxyphenyl)-2-propen-1-one], 110 nM; with `COc1cc(C(=O)/C=C/c2c[nH]c3ccc(F)cc23)cc(OC)c1OC` [Compound 29, (E)-3-(5-Fluoroindol-3-yl)-1-(3,4,5-trimethoxyphenyl)-2-propen-1-one], 60 nM.
For `COc1cc(C(=O)/C=C/c2c[nH]c3cc(C)ccc23)cc(OC)c1OC` [Compound 32, (E)-3-(6-Methylindol-3-yl)-1-(3,4,5-trimethoxyphenyl)-2-propen-1-one], the IC50 came out at 6.3 nM.
Regarding `COc1cc(C(=O)/C=C/c2cn(C)c3cc(NC(C)=O)ccc23)cc(OC)c1OC` [Compound 38, (E)-3-(6-Acetamido-1-methylindol-3-yl)-1-(3,4,5-trimethoxyphenyl)-2-propen-1-one], the IC50 is 55 nM.
For the molecule `COc1cc(C(=O)/C=C/c2c[nH]c3c(OC)c(OC)ccc23)cc(OC)c1OC` [Compound 40, (E)-3-(6,7-Dimethoxyindol-3-yl)-1-(3,4,5-trimethoxyphenyl)-2-propen-1-one], the IC50 came out at 12 nM.
Consider `COc1cc(C(=O)/C=C/c2c[nH]c3c(OC)cccc23)cc(OC)c1OC` [Compound 46, (E)-3-(7-Methoxyindol-3-yl)-1-(3,4,5-trimethoxyphenyl)-2-propen-1-one], for which the IC50 was 200 nM.
For the molecule `COc1cc(C(=O)/C(C)=C/c2c[nH]c3ccccc23)cc(OC)c1OC` [Compound 48, (E)-3-(Indol-3-yl)-2-methyl-1-(3,4,5-trimethoxyphenyl)-2-propen-1-one], the IC50 was found to be 0.29 nM.
Regarding `CCC/C(=C\c1c[nH]c2ccccc12)C(=O)c1cc(OC)c(OC)c(OC)c1` [Compound 49, (E)-3-(Indol-3-yl)-2-propyl-1-(3,4,5-trimethoxyphenyl)-2-propen-1-one], the IC50 turned out to be 6 nM.
With `COc1cc(C(=O)/C=C/c2cn(C(=O)c3ccc(C)cc3)c3ccccc23)cc(OC)c1OC` [Compound 50, (E)-3-[1-(4-Methylbenzoyl)indol-3-yl]-1-(3,4,5-trimethoxyphenyl)-2-propen-1-one], the IC50 is 25 nM.
Turning to `COc1ccc(C(=O)n2cc(/C=C/C(=O)c3cc(OC)c(OC)c(OC)c3)c3ccccc32)cc1` [Compound 51, (E)--3-[1-(4-Methoxybenzoyl)indol-3-yl]-1-(3,4,5-trimethoxyphenyl)-2-propen-1-one], the IC50 amounted to 23 nM.
With `COc1cc(C(=O)/C=C/c2cn(C(=O)c3cccc(C)c3)c3ccccc23)cc(OC)c1OC` [Compound 52, (E)-3-[1-(3-Methylbenzoyl)indol-3-yl]-1-(3,4,5-trimethoxyphenyl)-2-propen-1-one] the figure was 58 nM; with `COc1cccc(C(=O)n2cc(/C=C/C(=O)c3cc(OC)c(OC)c(OC)c3)c3ccccc32)c1` [Compound 53, (E)-3-[1-(3-Methoxybenzoyl)indol-3-yl]-1-(3,4,5-trimethoxyphenyl)-2-propen-1-one], 34 nM; with `COc1cc(C(=O)/C=C/c2cn(C(=O)c3ccc(NC(C)=O)cc3)c3ccccc23)cc(OC)c1OC` [Compound 56, (E)-3-[1-(4-Acetamidobenzoyl)indol-3-yl]-1-(3,4,5-trimethoxyphenyl)-2-propen-1-one], 23 nM.
For `COc1cc(C(=O)/C=C/c2cn(C(=O)c3ccc(N(C)C)cc3)c3ccccc23)cc(OC)c1OC` [Compound 57, (E)-3-[1-(4-Dimethylaminobenzoyl)indol-3-yl]-1-(3,4,5-trimethoxyphenyl)-2-propen-1-one], the IC50 came out at 31 nM.
With `COc1ccc(C(=O)n2cc(/C=C/C(=O)c3cc(OC)c(OC)c(OC)c3)c3ccccc32)cc1OC` [Compound 58, (E)-3-[1-(3,4-Dimethoxybenzoyl)indol-3-yl]-1-(3,4,5-trimethoxyphenyl)-2-propen-1-one], the IC50 is 64 nM.
With `COc1cc(C(=O)/C=C/c2cn(C(=O)c3cc(OC)c(OC)c(OC)c3)c3ccccc23)cc(OC)c1OC` [Compound 59, (E)-3-[1-(3,4,5-Trimethoxybenzoyl)indol-3-yl]-1-(3,4,5-trimethoxyphenyl)-2-propen-1-one] the figure was 28 nM; with `COc1cc(C(=O)/C=C/c2cn(C(=O)c3cccnc3)c3ccccc23)cc(OC)c1OC` [Compound 60, (E)-3-(1-Nicotinoylindol-3-yl)-1-(3,4,5-trimethoxyphenyl)-2-propen-1-one], 7.7 nM.
With `COc1cc(C(=O)/C=C/c2cn(C(=O)c3ccncc3)c3ccccc23)cc(OC)c1OC` [Compound 61, (E)-3-(1-Isonicotinoylindol-3-yl)-1-(3,4,5-trimethoxyphenyl)-2-propen-1-one] the figure was 9.7 nM; with `CC/C(=C\c1c[nH]c2ccccc12)C(=O)c1cc(OC)c(OC)c(OC)c1` [Compound 62, (E)-2-Ethyl-3-(indol-3-yl)-1-(3,4,5-trimethoxyphenyl)-2-propen-1-one], 4.7 nM; with `COc1cc(C(=O)/C(C)=C/c2c[nH]c3cc(C)ccc23)cc(OC)c1OC` [Compound 63, (E)-2-Methyl-3-(6-methylindol-3-yl)-1-(3,4,5-trimethoxyphenyl)-2-propen-1-one], 0.73 nM.
Consider `COc1cc(C(=O)C(=Cc2c[nH]c3ccccc23)c2ccccc2)cc(OC)c1OC` [Compound 64, 3-(Indol-3-yl)-2-phenyl-1-(3,4,5-trimethoxyphenyl)-2-propen-1-one], for which the IC50 was found to be 2.3 nM.
With `CCCC/C(=C\c1c[nH]c2ccccc12)C(=O)c1cc(OC)c(OC)c(OC)c1` [Compound 65, (E)-2-Butyl-3-(indol-3-yl)-1-(3,4,5-trimethoxyphenyl)-2-propen-1-one] the figure was 6.3 nM.
Next, `CCc1ccc2c(/C=C(\C)C(=O)c3cc(OC)c(OC)c(OC)c3)c[nH]c2c1` [Compound 66, (E)-3-(6-Ethylindol-3-yl)-2-methyl-1-(3,4,5-trimethoxyphenyl)-2-propen-1-one]: 2.5 nM; `COc1cc(C(=O)/C=C/c2cn(C(=O)COCC(=O)O)c3ccccc23)cc(OC)c1OC` [Compound 67, (E)-3-(1-Diglycolylindol-3-yl)-1-(3,4,5-trimethoxyphenyl)-2-propen-1-one]: 11 nM.
